Drawing on patent US20220009892A1, “SUBSTITUTED PYRIDINE CARBOXYLIC ACIDS, THEIR PREPARATION METHOD AND COMPOSITIONS THEREOF” (INCILIA THERAPEUTICS PRIVATE LIMITED, priority 2018, published 2022), this text covers melting point for 1 compound.

In general, melting point refers to the temperature, or range, at which the solid turns liquid. For the compound `COC(=O)c1cc(OC)c(OC(=O)c2cccnc2)c(OC)c1`, the melting point fell in the range of 173 to 175 °C.
